Laboratory results published in patent US20090227556A1, “RECEPTOR TYROSINE KINASE INHIBITORS COMPRISING PYRIDINE AND PYRIMIDINE DERIVATIVES” (Eisai R&D Management Co., Ltd., priority 2008, published 2009).
Values belong to the molecule of their own block, whether it stands above or below them.

How the values were obtained:
Format in all cases: biochemical
RON = target: T1, RON (Homo sapiens, UniProt Q04912); test: Tyrosine kinase inhibition, mobility shift assay (MSA); settings: recombinant human kinase
T1 construct: purchased Carna Biosciences Inc. 08-152
T1 sequence (Q04912 25-1400): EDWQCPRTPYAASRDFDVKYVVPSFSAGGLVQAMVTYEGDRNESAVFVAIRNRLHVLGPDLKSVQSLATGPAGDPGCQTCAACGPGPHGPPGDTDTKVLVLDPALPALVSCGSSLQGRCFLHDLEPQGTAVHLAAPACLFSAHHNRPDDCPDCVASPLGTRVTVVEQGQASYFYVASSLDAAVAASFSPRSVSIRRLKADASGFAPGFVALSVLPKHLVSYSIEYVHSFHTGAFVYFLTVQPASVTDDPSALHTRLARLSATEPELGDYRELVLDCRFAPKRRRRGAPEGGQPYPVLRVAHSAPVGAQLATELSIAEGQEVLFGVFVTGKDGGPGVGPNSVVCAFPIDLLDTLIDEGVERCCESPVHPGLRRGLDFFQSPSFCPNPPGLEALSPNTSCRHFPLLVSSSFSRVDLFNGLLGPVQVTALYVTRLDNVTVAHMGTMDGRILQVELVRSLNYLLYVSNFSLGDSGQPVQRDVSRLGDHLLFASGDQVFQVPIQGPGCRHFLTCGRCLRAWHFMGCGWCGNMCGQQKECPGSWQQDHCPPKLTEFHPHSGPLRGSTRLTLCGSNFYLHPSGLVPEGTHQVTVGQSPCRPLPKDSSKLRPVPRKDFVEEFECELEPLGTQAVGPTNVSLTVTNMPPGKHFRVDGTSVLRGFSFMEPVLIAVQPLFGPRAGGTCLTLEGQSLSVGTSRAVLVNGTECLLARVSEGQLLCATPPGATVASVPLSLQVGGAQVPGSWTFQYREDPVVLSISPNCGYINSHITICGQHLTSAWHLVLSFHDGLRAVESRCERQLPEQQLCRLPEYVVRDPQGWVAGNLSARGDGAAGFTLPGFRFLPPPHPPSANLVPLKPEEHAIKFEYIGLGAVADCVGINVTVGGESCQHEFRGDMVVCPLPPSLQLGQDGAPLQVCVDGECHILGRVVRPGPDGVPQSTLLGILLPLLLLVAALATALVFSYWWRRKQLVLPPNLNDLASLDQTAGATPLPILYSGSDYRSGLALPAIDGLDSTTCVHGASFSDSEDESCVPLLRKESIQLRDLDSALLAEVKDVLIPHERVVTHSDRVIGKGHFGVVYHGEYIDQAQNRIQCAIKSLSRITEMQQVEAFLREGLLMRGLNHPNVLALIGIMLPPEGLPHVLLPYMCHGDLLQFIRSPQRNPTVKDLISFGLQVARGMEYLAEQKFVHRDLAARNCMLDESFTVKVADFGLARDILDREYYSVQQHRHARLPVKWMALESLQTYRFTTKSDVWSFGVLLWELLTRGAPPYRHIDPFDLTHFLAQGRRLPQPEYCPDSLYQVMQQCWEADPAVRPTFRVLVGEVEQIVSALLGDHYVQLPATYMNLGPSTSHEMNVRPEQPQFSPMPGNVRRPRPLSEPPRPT
Description: (§1) A test compound was dissolved in dimethyl sulfoxide to make a 10 mM solution, which was stored in a dark place at 4° C. until use.
(§2) Protein tyrosine kinases (recombinant human kinases) used in the study were the following products from Carna Biosciences Inc. (Kobe, Japan).
(§3) VEGFR-1 (FLT 1) (product number: 08-189) VEGFR-3 (FLT 4) (product number: 08-190) RON (product number: 08-152) RET (product number: 08-159) KIT (product number: 08-156)
(§4) Kinase activity was measured in a mobility shift assay (MSA) method (J. Biomolecular Screening, 11, 359-368, 2006) using QuickScout Screening Assist™ (Carna Biosciences Inc., commercial kit), and enzyme-linked immunoassay (ELISA).
(§5) 5 μl of the test substance solution obtained by dissolving or suspending in an assay buffer (20 mM Hepes, 0.01% Triton X-100, 1 mM dithiothreitol, pH 7.4) (4× final concentration) or 5 μl of a solvent (4% dimethyl sulfoxide-assay buffer) was dispensed into a polypropylene 384-well plate (Greiner Bio-One, product number 781280). Then, 5 μl of QuickScout Screening Assist™ MSA in an ATP/substrate/metal solution was added. Additionally, 10 μl of the kinase solution diluted with the assay buffer was added to initiate a reaction. For a blank, only 10 μl of the assay buffer was added. The kinase concentration and reaction conditions were in accordance with the protocol of QuickScout Screening Assist™ MSA. Then, the reaction was terminated by addition of 60 μl of a termination buffer of the QuickScout Screening Assist™ MSA, and the amount of a substrate (S) and a phosphorylated substrate (P) in the reaction solution were determined using LabChip3000 (Caliper Life Science, Massachusetts, U.S.A.) in accordance with the protocol of QuickScout Screening Assist™ MSA. The amounts of the S and P were represented by respective separated peak height. […] It was on the condition that the signal was determined as P/(P+S).

RET = target: T2, RET (Homo sapiens, UniProt P07949); test: as above; settings: recombinant human kinase
T2 construct: purchased Carna Biosciences Inc. 08-159
T2 sequence (P07949 29-1114): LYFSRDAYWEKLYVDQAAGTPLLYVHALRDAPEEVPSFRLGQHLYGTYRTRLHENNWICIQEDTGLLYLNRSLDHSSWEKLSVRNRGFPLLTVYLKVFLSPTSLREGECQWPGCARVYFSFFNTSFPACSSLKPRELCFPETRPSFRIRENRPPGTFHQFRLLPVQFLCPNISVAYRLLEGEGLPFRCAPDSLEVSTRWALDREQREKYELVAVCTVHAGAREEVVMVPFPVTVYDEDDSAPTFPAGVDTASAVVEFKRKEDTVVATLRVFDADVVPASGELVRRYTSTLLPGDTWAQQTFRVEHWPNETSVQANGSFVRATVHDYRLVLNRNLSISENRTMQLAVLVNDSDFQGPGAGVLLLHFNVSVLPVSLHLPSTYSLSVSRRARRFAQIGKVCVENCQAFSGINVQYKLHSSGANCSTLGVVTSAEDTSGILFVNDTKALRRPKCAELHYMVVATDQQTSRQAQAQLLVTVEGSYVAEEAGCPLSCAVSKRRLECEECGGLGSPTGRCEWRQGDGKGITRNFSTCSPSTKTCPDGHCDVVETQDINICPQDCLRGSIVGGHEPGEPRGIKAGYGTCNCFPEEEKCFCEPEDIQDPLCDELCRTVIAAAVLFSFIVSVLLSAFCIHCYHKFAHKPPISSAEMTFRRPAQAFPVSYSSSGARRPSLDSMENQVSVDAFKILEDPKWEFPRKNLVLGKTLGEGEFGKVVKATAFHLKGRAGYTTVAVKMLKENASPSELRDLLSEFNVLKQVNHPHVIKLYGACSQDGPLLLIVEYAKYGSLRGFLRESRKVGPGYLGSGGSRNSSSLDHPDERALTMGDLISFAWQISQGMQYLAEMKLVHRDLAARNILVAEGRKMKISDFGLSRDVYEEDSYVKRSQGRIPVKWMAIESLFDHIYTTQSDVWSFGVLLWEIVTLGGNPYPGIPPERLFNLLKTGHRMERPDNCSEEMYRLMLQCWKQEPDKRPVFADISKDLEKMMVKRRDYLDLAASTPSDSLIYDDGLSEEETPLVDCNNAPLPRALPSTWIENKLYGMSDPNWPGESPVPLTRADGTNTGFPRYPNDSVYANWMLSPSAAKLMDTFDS
Description: as §1, §2, §3, §4, §5

VEGFR-3 (FLT 4) = target: T3, VEGFR-3 (FLT 4) (Homo sapiens, UniProt P35916); test: as above; settings: recombinant human kinase
T3 construct: purchased Carna Biosciences Inc. 08-190
T3 sequence (P35916 25-1363): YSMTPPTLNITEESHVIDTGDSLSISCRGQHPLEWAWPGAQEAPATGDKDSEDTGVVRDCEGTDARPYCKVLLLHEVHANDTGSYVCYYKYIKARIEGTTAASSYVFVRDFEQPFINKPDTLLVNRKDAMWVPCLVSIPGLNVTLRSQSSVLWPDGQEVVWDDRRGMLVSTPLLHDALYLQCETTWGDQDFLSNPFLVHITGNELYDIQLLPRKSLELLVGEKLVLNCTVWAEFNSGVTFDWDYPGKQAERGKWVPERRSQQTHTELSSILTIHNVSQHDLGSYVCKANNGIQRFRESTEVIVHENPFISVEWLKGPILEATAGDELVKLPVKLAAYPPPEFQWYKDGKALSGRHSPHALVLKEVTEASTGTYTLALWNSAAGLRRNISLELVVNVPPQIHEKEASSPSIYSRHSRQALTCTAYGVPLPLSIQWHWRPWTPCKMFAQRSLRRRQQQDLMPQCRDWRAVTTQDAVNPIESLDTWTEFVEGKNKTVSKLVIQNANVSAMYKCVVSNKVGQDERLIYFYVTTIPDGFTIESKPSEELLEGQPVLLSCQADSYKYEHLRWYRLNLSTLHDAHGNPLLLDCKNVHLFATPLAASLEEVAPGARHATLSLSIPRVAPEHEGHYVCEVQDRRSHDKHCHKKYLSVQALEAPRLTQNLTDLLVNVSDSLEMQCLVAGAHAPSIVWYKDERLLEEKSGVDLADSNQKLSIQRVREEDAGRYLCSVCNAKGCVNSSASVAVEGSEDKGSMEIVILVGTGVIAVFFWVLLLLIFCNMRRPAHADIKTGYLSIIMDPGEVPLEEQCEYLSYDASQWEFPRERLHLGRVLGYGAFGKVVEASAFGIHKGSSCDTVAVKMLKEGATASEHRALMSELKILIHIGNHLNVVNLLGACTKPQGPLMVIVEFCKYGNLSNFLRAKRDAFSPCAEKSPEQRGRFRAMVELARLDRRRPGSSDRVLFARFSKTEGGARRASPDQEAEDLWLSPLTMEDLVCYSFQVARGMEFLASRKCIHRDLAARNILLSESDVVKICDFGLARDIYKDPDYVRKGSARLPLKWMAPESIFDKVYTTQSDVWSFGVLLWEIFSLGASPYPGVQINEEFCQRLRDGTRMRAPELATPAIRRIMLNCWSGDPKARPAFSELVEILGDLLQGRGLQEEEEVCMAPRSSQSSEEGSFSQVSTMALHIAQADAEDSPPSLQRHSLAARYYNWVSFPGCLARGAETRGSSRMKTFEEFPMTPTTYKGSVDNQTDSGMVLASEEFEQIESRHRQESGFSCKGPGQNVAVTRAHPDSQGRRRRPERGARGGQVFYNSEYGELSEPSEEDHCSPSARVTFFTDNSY
Description: as §1, §2, §3, §4, §5

[1] = target: T4, VEGFR-2 tyrosine kinase (His6-VEGFR-2, cytoplasmic domain) (Homo sapiens, UniProt P35968); test: Inhibitory activity on VEGFR-2 tyrosine kinase (HTRF); settings: biotin-poly(GT) substrate
T4 construct: made in house; host or cells: Sf9 insect cells (baculovirus, pFastBac-HT)
T4 sequence (P35968 786-1356 limits assumed): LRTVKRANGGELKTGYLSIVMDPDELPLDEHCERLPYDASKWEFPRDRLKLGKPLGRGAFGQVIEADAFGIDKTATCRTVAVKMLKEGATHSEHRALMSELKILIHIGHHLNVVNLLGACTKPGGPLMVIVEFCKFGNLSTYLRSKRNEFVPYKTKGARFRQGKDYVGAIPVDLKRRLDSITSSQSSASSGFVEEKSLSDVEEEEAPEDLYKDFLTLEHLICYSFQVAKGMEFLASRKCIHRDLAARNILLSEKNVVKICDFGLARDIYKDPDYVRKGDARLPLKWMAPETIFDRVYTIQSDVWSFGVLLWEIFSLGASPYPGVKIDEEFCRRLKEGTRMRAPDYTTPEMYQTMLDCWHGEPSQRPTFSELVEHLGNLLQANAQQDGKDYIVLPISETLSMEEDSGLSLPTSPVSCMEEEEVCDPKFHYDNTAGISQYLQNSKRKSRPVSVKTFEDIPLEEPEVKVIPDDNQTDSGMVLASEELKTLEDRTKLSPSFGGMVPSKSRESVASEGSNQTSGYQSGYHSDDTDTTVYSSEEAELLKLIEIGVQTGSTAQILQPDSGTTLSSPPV
Description: Cytoplasmic domain of VEGFR-2 (Genbank Accession No. L04947) is a 1.7 kb DNA fragment starting from lysine 791 and contains a stop codon, as described by Tarman et al. (Oncogene, 6(9), 1677-1683, 1991). This DNA fragment was isolated from a human placental cDNA library (obtained from Clontech Laboratories, Inc.) with two primers (obtained from TaKaRa Ex Taq™ Kit, TaKaRa) using a PCR method. This DNA fragment was cloned into a baculovirus transplace vector (pFastBac™-HT (obtained from GIBCO BRL)), to obtain a recombinant construct. An insect cell (Spodoptera frugiperda 9 (Sf9)) was transfected with it, and a VEGFR-2 recombinant baculovirus solution was prepared (preparation of the recombinant baculovirus can be found in a standard textbook (Bac-to-Bac Baculovirus Expression System (GIBCO BRL)).
To Sf9 cells (3×10^8 cells) suspended in a SF-90011 culture medium containing 2% FBS (obtained from Invitrogen Corp.), the above mentioned recombinant VEGFR-2 baculovirus solution (4 ml) was added and incubated with shaking at 27° C. for 48 hours. The recombinant VEGFR-2 baculovirus-infected cell culture was centrifuged at 4° C. at 1000 rpm for 5 minutes, and the supernatant was removed. The precipitated infected cells were suspended in 80 ml of ice-cold PBS, the suspension was centrifuged at 4° C. at 1000 rpm for 5 minutes, and the supernatant was removed. The precipitated infected cells were suspended in 40 ml of ice-cold Lysis Buffer (50 mM Tris-HCl (pH 8.5), 5 mM 2-mercaptoethanol, 100 mM KCl, 1 mM PMSF, and 1% (v/v) NP-40). This suspension was centrifuged at 4° C. at 12,000 rpm for 30 min to obtain a supernatant.
This supernatant was added to a Ni-NTA agarose column (3 ml, obtained from Qiagen) which had been equilibrated with 30 ml of Buffer A (20 mM Tris-HCl (pH 8.5), 5 mM 2-mercaptoethanol, 500 mM KCl, 20 mM imidazole, and 10% (v/v) glycerol). This column was washed sequentially with 30 ml of Buffer A, 6 ml of Buffer B (20 mM Tris-HCl (pH 8.5), 5 mM 2-mercaptoethanol, 1M KCl, and 10% (v/v) glycerol), and 6 ml of Buffer A. Then, to this column, 6 ml of Buffer C (20 mM Tris-HCl (pH 8.5), 5 mM 2-mercaptoethanol, 100 mM KCl, 100 mM imidazole, and 10% (v/v) glycerol) was added to obtain an eluate. This eluate was poured into a dialysis membrane (obtained from Spectrum Laboratories) and dialyzed with 1 liter of dialysis buffer (20 mM Tris-HCl (pH 7.5), 10% (v/v) glycerol, 1 mM DTT, 0.1 mM Na3VO4, 0.1 mM EGTA) at 4° C. overnight and stored at −80° C. until use. After the dialysis, a part of the eluate was subjected to a SDS electrophoresis, and the recombinant protein (His 6-VEGFR-2, a cytoplasmic domain of VEGFR-2 fused with 6 histidine residues on its N-terminus) detected at about 100 kDa Mw in Coomassie Brilliant Blue staining was subjected to protein quantification using BSA (obtained from Sigma Co. Ltd.) as a standard.
In each well of a 96-well round bottom plate (obtained from NUNC, product number 163320), 10 μl of a solution for kinase reaction (200 mM Hepes (pH 7.4), 80 mM MgCl2, 16 mM MnCl2, 2 mM Na3VO4), 250 ng of biotin-conjugated poly (Glu 4: Tyr 1) (biotin-poly (GT) obtained from Nihon Schering K.K.) (6 μl of 1/15 diluted solution with distilled water), 15 ng of His6-VEGFR-2 (10 μl of a 1/240 diluted solution with a 0.4% BSA solution), and a test substance solution in dimethyl sulfoxide (4 μl of 1/100 dilution with 0.1% BSA) were added to make a total volume of 30 μl. To them, 10 μl of 4 μM ATP (obtained from Sigma Co. Ltd.) diluted with distilled water was added, and the resultant was incubated for 10 minutes at 30° C., followed by addition of 10 μl of 500 mM EDTA (pH 8.0) (obtained from Wako Pure Chemical Industries, Ltd.) to obtain a kinase reaction solution.
To detect tyrosine-phosphorylated biotin-poly (GT), the Homogenous Time-Resolved Fluorescence (HTRF) method was used (Analytical Biochemistry, 269, 94-104, 1999). […]

SMILES: CN1CCN(C2CCN(C(=O)Nc3cc(Oc4cc(F)c(NC(=O)C5(C(=O)Nc6ccc(F)cc6)CC5)cc4F)ccn3)CC2)CC1 [N-(2,5-Difluoro-4-{[2-({[4-(4-methylpiperazin-1-yl)piperidin-1-yl]carbonyl}amino)pyridin-4-yl]oxy}phenyl)-N′-(4-fluorophenyl)cyclopropane-1,1-dicarboxamide]
IC50 (RON): 2.4 nM
IC50 (RET): 38 nM
IC50 (VEGFR-3 (FLT 4)): 22 nM
IC50 [1]: 100 nM

SMILES: O=C(Nc1cc(Oc2cc(F)c(NC(=O)C3(C(=O)Nc4ccc(F)cc4)CC3)cc2F)ccn1)N1CC(CO)C1 [N-(2,5-Difluoro-4-{[2-({[3-(hydroxymethyl)azetidin-1-yl]carbonyl}amino)pyridin-4-yl]oxy}phenyl)-N′-(4-fluorophenyl)cyclopropane-1,1-dicarboxamide]
IC50 (RON): 2.6 nM
IC50 (RET): 28 nM
IC50 (VEGFR-3 (FLT 4)): 6.2 nM
IC50 [1]: 10 nM

SMILES: CN1CCC(N(C)C(=O)Nc2cc(Oc3cc(F)c(NC(=O)C4(C(=O)Nc5ccc(F)cc5)CC4)cc3F)ccn2)CC1 [N-(2,5-Difluoro-4-{[2-({[methyl(1-methylpiperidin-4-yl)amino]carbonyl}amino)pyridin-4-yl]oxy}phenyl)-N′-(4-fluorophenyl)cyclopropane-1,1-dicarboxamide]
IC50 (RON): 1.8 nM
IC50 (RET): 36 nM
IC50 (VEGFR-3 (FLT 4)): 11 nM
IC50 [1]: 95 nM

More lines, now with the values ahead:

IC50 (RON): 26 nM
IC50 (RET): 99 nM
IC50 (VEGFR-3 (FLT 4)): 36 nM
IC50 [1]: 59 nM
SMILES: O=C(Nc1cc(Oc2ccc(NC(=O)C3(C(=O)Nc4ccc(F)cc4)CC3)c(F)c2)ccn1)N1CCC1 [N-[4-({2-[(Azetidin-1-ylcarbonyl)amino]pyridin-4-yl}oxy)-2-fluorophenyl]-N′-(4-fluorophenyl)cyclopropane-1,1-dicarboxamide]

IC50 (RON): 4.6 nM
IC50 (RET): 44 nM
IC50 (VEGFR-3 (FLT 4)): 10 nM
IC50 [1]: 9.5 nM
SMILES: O=C(Nc1cc(Oc2cc(F)c(NC(=O)C3(C(=O)Nc4ccc(F)cc4)CC3)cc2F)ccn1)N1CC(O)C1 [N-{2,5-Difluoro-4-[(2-{[(3-hydroxyazetidin-1-yl)carbonyl]amino}pyridin-4-yl)oxy]phenyl}-N′-(4-fluorophenyl)cyclopropane-1,1-dicarboxamide]
